{"source": "patent US20050019308A1", "about": "“Oncolytic viruses for the treatment of neoplasms having activated PP2A or Rac” (Oncolytics Biotech Inc., priority 2003, published 2005)", "key": {"[1]": {"system": "PP1", "conditions": "cited from earlier work"}, "[2]": {"system": "reovirus", "experiment": "Susceptibility of phosphatase inhibitor-treated transformed cells to reovirus infection", "format": "cell-based", "conditions": "okadaic acid-treated cells", "description": "(§1) PKR is not phosphorylated (i.e., […]) in cells transformed with elements of the ras pathway, such as v-erbB. To determine whether serine-threonine phosphatases are responsible for the lack of phosphorylation of PKR in these cells, selective inhibitors of the phosphatases are employed to assess the role of each phosphatase. […] Inhibitors specific for PP1 or PP2C have no effects on PKR phosphorylation."}, "[3]": {"system": "PP2B", "conditions": "cited from earlier work"}, "[4]": {"system": "PKR", "experiment": "PKR phosphorylation in cells transformed with v-erbB in the presence of selective phosphatase inhibitors", "format": "cell-based", "conditions": "in the presence of the inhibitor", "description": "as §1"}, "[5]": {"system": "PP2A", "conditions": "cited from earlier work"}}}
{"smiles": "C=C1[C@@H](O)[C@@H]2O[C@]3(CC[C@H](/C=C/[C@@H](C)[C@@H]4CC(C)=C[C@@]5(O[C@H](C[C@@](C)(O)C(=O)O)CC[C@H]5O)O4)O3)CC[C@H]2O[C@@H]1[C@@H](O)C[C@H](C)[C@H]1O[C@@]2(CCCCO2)CC[C@H]1C", "note": "[okadaic acid]", "values": [{"measurement": "effectiveness against phosphatase", "setting": "[1]", "value": "less so against PP1"}, {"measurement": "susceptibility of treated cells to reovirus infection", "setting": "[2]", "value": "become susceptible to reovirus infection"}, {"measurement": "effectiveness against phosphatase", "setting": "[3]", "value": "only marginally against PP2B"}, {"measurement": "effect on PKR phosphorylation", "setting": "[4]", "value": "PKR becomes phosphorylated"}, {"measurement": "effectiveness against phosphatase", "setting": "[5]", "value": "most effective against PP2A"}]}
